Experimental data as given in PMC5874716, “Antimicrobial Peptides for Topical Treatment of Osteomyelitis and Implant-Related Infections: Study in the Spongy Bone” (Pharmaceuticals, 2018).
Counter-ions that a name gives are not always drawn. Non-standard residues stand in square brackets, D forms with d. Residues, ends and D or L forms follow the SMILES beside them. No end group written: not given here. βAla = NCCC(=O)O

Columns and labels:
[1] = system: E. faecalis clinical isolate (Motol); test: microbe, parasite or virus in culture; assay type: cell-based; details: clinical isolate Motol, Bioscreen C, at least three times in duplicates
Description: (§1) Femur heads (ca. 70 pieces) taken from patients during hip replacement surgery were periodically purchased in the period between 2014–2017 as discarded from the bone tissue bank at University Hospital in Motol, Prague, Czech Republic. The reason for the replacements by artificial prosthesis was the worn out cartilage on the surface of their heads. Bone samples were stored at −80 °C under standard conditions of certified tissue banks. In the laboratory, they were kept at +5 °C overnight and then at room temperature for several hours before they could be used for the experiments. The experiments with this material were approved by the Ethics Committee for Multi-Centric Clinical Trials of the University Hospital Motol, Reference No: EK-655/15. Methicillin-resistant S. aureus (MRSA 6271) ATCC 43300 and P. aeruginosa (5482) ATCC 27853 were purchased from the Czech National Collection of Type Cultures, National Institute of Public Health, Prague, Czech Republic. Methicillin-resistant S. aureus (MRSA (L)) and P. aeruginosa (L) were obtained as multi-resistant clinical isolates from Liberec Regional Hospital, Liberec, Czech Republic. Methicillin-resistant S. aureus (MRSA (M)), E. faecalis and S. epidermidis were obtained as clinical isolates from University Hospital in Motol, Prague. Candida albicans (F7-39/IDE99) came from the mycological collection of the Faculty of Medicine, Palacky University, Olomouc, Czech Republic. C. albicans ATCC MYA-2876, C. tropicalis ATCC 750 and C. glabrata DSY565 were kindly provided by Dr. Hana Sychrová from the Institute of Physiology, Academy of Sciences of the Czech Republic, Prague. Vancomycin hydrochloride, gentamicin sulfate, ceftriaxone disodium salt, amphotericin B, fluconazole, and clotrimazole were obtained from Sigma-Aldrich, Prague, Czech Republic.
(§2) MIC values for peptides were established by observing growth of treated bacteria in HONEYCOMB 100-well microtiter plates (Helsinki, Finland) using a Bioscreen C instrument (Oy Growth Curves, Helsinki, Finland) as previously described. Haemolytic activity of peptides expressed as the concentration of a peptide required for lysis of 50% of human erythrocytes in the assay (LC50) was measured using a Tecan infinite M200 PRO reader (Tecan Austria GmbH, Grödig, Austria). Blood samples for determining haemolytic activity were obtained from healthy volunteers.

MRSA 6271 (ATCC 43300) = test: microbe, parasite or virus in culture; assay type: cell-based; details: growth in 100-well microtiter plates, Bioscreen C, tested at least three times in duplicates
Description: as §1, §2

[2] = system: MRSA clinical isolate from Liberec Regional Hospital (MRSA (L)); test: microbe, parasite or virus in culture; assay type: cell-based; details: clinical isolate Liberec, Bioscreen C, at least three times in duplicates
Description: as §1, §2

[3] = system: MRSA clinical isolate from University Hospital in Motol (MRSA (M)); test: microbe, parasite or virus in culture; assay type: cell-based; details: clinical isolate Motol, Bioscreen C, at least three times in duplicates
Description: as §1, §2

[4] = system: P. aeruginosa (5482) ATCC 27853; test: microbe, parasite or virus in culture; assay type: cell-based; details: Bioscreen C, at least three times in duplicates
Description: as §1, §2

[5] = system: P. aeruginosa clinical isolate from Liberec Regional Hospital; test: microbe, parasite or virus in culture; assay type: cell-based; details: clinical isolate Liberec, Bioscreen C, at least three times in duplicates
Description: as §1, §2

[6] = system: S. epidermidis clinical isolate (Motol); test: microbe, parasite or virus in culture; assay type: cell-based; details: clinical isolate Motol, Bioscreen C, at least three times in duplicates
Description: as §1, §2

Candida albicans = assay type: cell-based; details: Bioscreen C; at least three times in duplicates
Description: as §1, §2

human erythrocytes = test: Haemolysis assay; assay type: cell-based; details: concentration causing lysis of 50% of human red blood cells; at least three times in duplicates
Description: as §2

laboratory rats = details: infected femurs of laboratory rats treated locally; cited from earlier work
From the text: Another issue might be the toxicity of these peptides when applied locally to the bone tissue of laboratory animals or humans. […] None of these animals died.

MIC ([1]; Enterococcus faecalis, read-out: Antimicrobial Activity MIC, E. f. b) [µM]	MIC (MRSA 6271 (ATCC 43300); Staphylococcus aureus, read-out: Antimicrobial Activity MIC, MRSA 6271) [µM]	MIC ([2]; Staphylococcus aureus, MRSA, read-out: Antimicrobial Activity MIC, MRSA a) [µM]	MIC ([3]; Staphylococcus aureus, MRSA, read-out: Antimicrobial Activity MIC, MRSA b) [µM]	MIC ([4]; Pseudomonas aeruginosa, ATCC27853, read-out: Antimicrobial Activity MIC, P. a. 5482) [µM]	MIC ([5]; Pseudomonas aeruginosa, read-out: Antimicrobial Activity MIC, P. a. a) [µM]	MIC ([6]; Staphylococcus epidermidis, read-out: Antimicrobial Activity MIC, S. e. b) [µM]	Compound	Antimicrobial Activity MIC, E. f. b [1] [µmol/L]	Antimicrobial Activity MIC, MRSA 6271 (MRSA 6271 (ATCC 43300)) [µmol/L]	Antimicrobial Activity MIC, MRSA a [2] [µmol/L]	Antimicrobial Activity MIC, MRSA b [3] [µmol/L]	Antimicrobial Activity MIC, P. a. 5482 [4] [µmol/L]	Antimicrobial Activity MIC, P. a. a [5] [µmol/L]	Antimicrobial Activity MIC, S. e. b [6] [µmol/L]	Antimicrobial Activity MIC, C. a. (Candida albicans) [µmol/L]	Haemolytic Activity LC50 (human erythrocytes) [µmol/L]	animals died (laboratory rats)	signs of local or systemic toxicity (laboratory rats)
–	–	–	–	–	–	–	KWMKLLKKILK-NH2 [IX]	>100	13.5	8.0	17.7	2.9	5.8	3.2	9.5	>400	–	–
–	–	–	–	–	–	–	GKWMKMLKKILK-NH2 [IV]	>100	20.0	10.0	20.0	5.3	12.7	3.2	12.7	>200	–	–
–	–	–	–	–	–	–	GKWMKLLKKILK-NH2 [I]	13.3	6.3	3.6	5.7	2.8	10.0	2.3	5.7	339	None	did not notice any signs of local or systemic toxicity
–	–	–	–	–	–	–	GKWVKLLKKILK-NH2 [VI]	>100	9.0	5.0	10.0	3.0	12.7	2.5	6.3	>400	–	–
–	–	–	–	–	–	–	CC[C@@H](C)[C@@H](NC(=O)[C@@H](CCCCN)NC(=O)[C@@H](CCCCN)NC(=O)[C@@H](CC(C)C)NC(=O)[C@@H](CC(C)C)NC(=O)[C@@H](CCCCN)NC(=O)[C@@H](CCSC)NC(=O)[C@@H](Cc1c[nH]c2ccccc12)NC(=O)[C@@H](CCCCN)NC(=O)CN)C(=O)N[C@H](CC(C)C)C(=O)N[C@H](CCCCN)C(N)=O [II] (H-G[dK][dW][dM][dK][dL][dL][dK][dK][dI][dL][dK]-NH2; N-terminus assumed)	12.7	11.3	5.3	9.7	4.5	12.5	2.0	5.7	>400	–	–
–	–	–	–	–	–	–	GKWLKLLKKILK-NH2 [V]	50.7	10.0	8.0	10.0	4.0	10.7	2.2	16.0	196	–	–
–	–	–	–	–	–	–	GKWKKLLKKILK-NH2 [III]	>100	29.7	11.5	25.3	2.9	9.5	4.7	9.5	>400	–	–
–	–	–	–	–	–	–	CC[C@@H](C)[C@@H](NC(=O)[C@@H](CCCCN)NC(=O)[C@@H](CCCCN)NC(=O)[C@@H](CC(C)C)NC(=O)[C@@H](CC(C)C)NC(=O)[C@@H](CCCCN)NC(=O)[C@@H](CCSC)NC(=O)[C@@H](Cc1c[nH]c2ccccc12)NC(=O)[C@@H](CCCCN)NC(=O)CCN)C(=O)N[C@H](CC(C)C)C(=O)N[C@H](CCCCN)C(N)=O [XII] (H-[βAla][dK][dW][dM][dK][dL][dL][dK][dK][dI][dL][dK]-NH2; N-terminus assumed)	32.0	16.0	8.0	16.0	3.2	8.0	2.5	5.3	>400	–	–
95.2	325	3.9	4.5	2	> 220	109	CNC(C)C1CCC(N)C(OC2C(N)CC(N)C(OC3OCC(C)(O)C(NC)C3O)C2O)O1 (stereo not drawn) [Gentamicin, gentamicin sulfate, reference compound]	–	–	–	–	–	–	–	–	–	–	–
–	–	–	–	–	–	–	CC[C@@H](C)[C@@H](NC(=O)[C@@H](CCCCN)NC(=O)[C@@H](CCCCN)NC(=O)[C@@H](CC(C)C)NC(=O)[C@@H](CC(C)C)NC(=O)[C@@H](CCCCN)NC(=O)[C@H](NC(=O)[C@@H](Cc1c[nH]c2ccccc12)NC(=O)[C@@H](CCCCN)NC(=O)CN)C(C)C)C(=O)N[C@H](CC(C)C)C(=O)N[C@H](CCCCN)C(N)=O [VII] (H-G[dK][dW][dV][dK][dL][dL][dK][dK][dI][dL][dK]-NH2; N-terminus assumed)	25.3	22.0	15.0	22.0	4.5	25.3	4.2	12.5	>400	–	–
–	–	–	–	–	–	–	CC[C@@H](C)[C@@H](NC(=O)[C@@H](CCCCN)NC(=O)[C@@H](CCCCN)NC(=O)[C@@H](CC(C)C)NC(=O)[C@@H](CC(C)C)NC(=O)[C@@H](CCCCN)NC(=O)[C@@H](CCSC)NC(=O)[C@@H](Cc1c[nH]c2ccccc12)NC(=O)[C@H](N)CCCCN)C(=O)N[C@H](CC(C)C)C(=O)N[C@H](CCCCN)C(N)=O [X] (H-[dK][dW][dM][dK][dL][dL][dK][dK][dI][dL][dK]-NH2; N-terminus assumed)	36	19.3	14.0	14.0	4.5	18.0	3.5	11.3	>400	–	–
